“Also recorded” adds a separate entry of the source.
Assays:
[1] = test system: hES2-derived cardiomyocytes; experiment: Wrinkling-based contraction analysis of periodically contracting cardiomyocyte colonies on silicone elastomer film; format: cell-based, human; conditions: live treatment in three concentrations (high, medium, low): ouabain and nifidepine 0.3, 3, 30 μM; isoproterenol and blebbistatin 0.1, 1, 10 μM
Procedure: To meet standard requirements on product shelf life and ease-of-shipping, the surface treatment method was refined to provide the film surface with a dry layer of adhesive protein. The improved treatment process (“APTES/EDAC”) comprises sequential oxidation with plasma oxygen, 1% APTES for 90 min, 100 μg/ml 1-Ethyl-3-(3-dimethylaminopropyl) carbodiimide (EDAC) for 10 min (to replace the previous paraformaldehyde step), protein wet coating, and air drying. Fibronectin and gelatin were used as most widely applied proteins to promote cardiomyocyte adhesion.
The number of beating colonies was at least 20-30/well across all protein coatings following APTES/EDAC treatment but <10 beating colonies/well without APTES/EDAC functionalization (FIG. 17C). APTES/EDAC functionalization obtained wrinkles which were visible in ˜50% of all beating colonies (FIG. 17D). APTES/EDAC treated surfaces with fibronectin (2 μg/ml) and gelatin (2 and 20 μg/ml) coating were selected to optimize cell densities for contraction analysis. Cardiomyocyte seeding densities were reduced from 50,000 to 25,000, 10,000 and 5,000 cells/cm^2 and wrinkling percentages were quantified. With cell density adaptation, the percentage of wrinkling among beating colonies reached 80-90% across all protein coatings with 10,000-25,000 cells/cm^2. […] Too low density reduced the number of beating colonies and percentage of wrinkling cells (FIG. 17E). For all further experiments, the plasma oxidized and APTES/EDAC-treated biocompatible silicone elastomers of 96-wells were coated with gelatin at a concentration of 2 μg/ml and provided with 10,000 cells/cm^2 before wrinkling was assessed after 2 days.
Cardiomyocyte contraction was assessed by recording image sequences over at least 15 s with an image acquisition rate of 10 frames/s. Acquisition was performed well-by-well on four image fields per well using the 10× objective of an inverted microscope with motorized stage and fully automated stage/acquisition control. The setup was chosen to provide conditions equivalent to commercially available HTS imaging stations. […] When comparing the signals generated by contracting cardiomyocytes on films with the competitive method of shape analysis on stiff culture substrates, wrinkling analysis delivered a 10-20-fold higher signal (FIG. 18).
Referring to FIG. 28, periodically contracting cardiomyocyte colonies were recorded and live treated with cardiomyocyte affecting drugs in three concentrations (high, medium, low). Ouabain (0.3, 3, 30 μM) increased contraction amplitude at unchanged frequency, nifidepine (0.3, 3, 30 μM) decreased contraction amplitude and increased frequency, isoproterenol (0.1, 1, 10 μM) increased contraction frequency and amplitude, and blebbistatin (0.1, 1, 10 μM) decreased contraction amplitude and frequency.

[2] = test system: fibroblasts; experiment: Wrinkling of PDMS silicone elastomer film by contractile fibroblasts (live videomicroscopy, kymograph analysis); format: cell-based, rat; conditions: 1:100 PDMS film, plasma + APTES + paraformaldehyde + collagen; LPA 10 μM, cytochalasin D 1-10 μM, Y27632 10 μM
Procedure: Primary rat lung myofibroblasts and subcutaneous fibroblasts (SCF) were derived from explants and cultured from passage 2-7. All cells, including lineage aortic smooth muscle cells (A7r5) and rat embryonic fibroblasts (REF-52) were cultured in DMEM (Gibco-BRL, Basel, CH), containing 10% FCS and antibiotics. Cytochalasin D (Sigma) was used at 1-10 μM, blebbistatin (Calbiochem, Darmstadt, Germany) at 10 μM, Y27632 (Calbiochem) at 10 μM and lysophosphatic acid (LPA) (Sigma) at 10 μM. For FA maturation analysis, REF-52 were stably transfected with β3 integrin-GFP (16), full-length GFP-paxillin (Zamir et al, 2000), and α-SMA-GFP (Clement et al., 2005), using Fugene 6 (Roche, Reinach, CH).
To reduce pipetting errors and to ameliorate the mixing process, curing agent can be pre-diluted in toluene without changing the elastic properties of the polymerized material. PDMS films of 200 μm thickness were produced by distributing the respective volume with a pipette tip onto glass coverslips (#0, Karl Hecht KG, Sondheim, Germany) at the bottom of homemade observation chambers or on standard culture dishes. Substrates were degassed in a desiccator and polymerized for minimum 3 d at RT. Polymerized films were kept at RT for up to two months without changing compliance. Alternative polymerization protocols using higher curing temperatures are possible but will have an influence on the elastic modulus of the film (Lee et al., 2004). […]
Confocal images of fixed specimen were acquired using a 40× oil immersion objective (HC PL APO, NA 1.25-0.75, Leica, Glattbrugg, CH), mounted on an inverted confocal microscope (DM IRE2 with a laser scanning confocal head TCS SP2 AOBS, Leica). […] Phase contrast sequences were taken at a rate of 1 frame/min and live fluorescence images every 30 min using 20× (Plan-Apochromat, Ph2, NA 0.5) and 40× (Plan-Neofluar, Ph3, NA 1.3 oil immersion, Zeiss) objectives. […]

[3] = test system: cardiomyocytes; conditions: benchmark drugs, Yokoo et al. 2009 / Gai et al. 2009; cited from earlier work

| Molecule | contraction (beating) amplitude [1] | contraction (beating) frequency [1] | frequency of beating [3] | also measured |
| --- | --- | --- | --- | --- |
| C[C@@H]1O[C@@H](O[C@H]2C[C@@H](O)[C@]3(CO)[C@H]4[C@H](O)C[C@]5(C)[C@@H](C6=CC(=O)OC6)CC[C@]5(O)[C@@H]4CC[C@]3(O)C2)[C@H](O)[C@H](O)[C@H]1O [Ouabain] | increased | unchanged | – | – |
| C[C@@H](N)[C@H]1CC[C@H](C(=O)Nc2ccncc2)CC1 [Y27632] | – | – | – | cell contraction (number and extension of wrinkles) [2]: completely abolished |
| CNCC(O)c1ccc(O)c(O)c1 (stereo not drawn) [adrenaline] | – | – | increase | – |
| Cc1ccc2c(c1)C(=O)C1(O)CCN(c3ccccc3)C1=N2 (stereo not drawn) [blebbistatin] | decreased | decreased | – | – |
| C=C1[C@@H](C)[C@H]2[C@H](Cc3ccccc3)NC(=O)[C@]23[C@H](OC(C)=O)/C=C/[C@@](C)(O)C(=O)[C@@H](C)C/C=C/[C@H]3[C@@H]1O [cytochalasin D, Cytochalasin D] | – | – | – | cell contraction (number and extension of wrinkles) [2]: completely abolished; also recorded: loss of cell contraction |
| COc1ccc([C@@H]2Sc3ccccc3N(CCN(C)C)C(=O)[C@@H]2OC(C)=O)cc1 [diltiazem] | – | – | decrease | – |
| O=C(NCC1CCCCN1)c1cc(OCC(F)(F)F)ccc1OCC(F)(F)F (stereo not drawn) [felcainide] | – | – | decrease | – |
| CC(C)NCC(O)c1ccc(O)c(O)c1 (stereo not drawn) [isoproterenol] | increased | increased | increase | – |
| COC(=O)C1=C(C)NC(C)=C(C(=O)OC)C1c1ccccc1[N+](=O)[O-] [nifidepine] | decreased | increased | – | – |
| CNC[C@H](O)c1cccc(O)c1 [phenylephrine] | – | – | increase | – |
| CCN(CC)CCNC(=O)c1ccc(N)cc1 [procainamide] | – | – | decrease | – |
| COc1ccc(CCN(C)CCCC(C#N)(c2ccc(OC)c(OC)c2)C(C)C)cc1OC (stereo not drawn) [verapamil] | – | – | decrease | – |
| lysophosphatic acid [LPA] | – | – | – | cell contraction (number and extension of wrinkles) [2]: increased cell contraction |
